Measurements taken from ChEMBL document CHEMBL5236634, “Membrane-Targeting Neolignan-Antimicrobial Peptide Mimic Conjugates to Combat Methicillin-Resistant Staphylococcus aureus (MRSA) Infections” (J Med Chem, 2022).
Values after ≈ are worked out from the molar mass of the structure shown.

How the values were obtained:
Staphylococcus aureus = test: Antibacterial activity against Staphylococcus aureus ATCC 29213 assessed as inhibition of bacterial growth incubated for 16 to 20 hrs by CLSI based microdilution method; type: functional; conditions: time 16-20 hrs
[1] = Selectivity index, ratio of HC50 for hemolytic activity in sheep RBC to MIC for antibacterial activity against Staphylococcus aureus ATCC 29213; type: toxicity; conditions: sheep red blood cells
Salmonella enterica [2] = test: Antibacterial activity against Salmonella enterica 8389 assessed as inhibition of bacterial growth incubated for 16 to 20 hrs by CLSI based microdilution method; type: functional; conditions: time 16-20 hrs
Micrococcus luteus = test: Antibacterial activity against Micrococcus luteus assessed as inhibition of bacterial growth incubated for 16 to 20 hrs by CLSI based microdilution method; type: functional; conditions: time 16-20 hrs
Escherichia coli = test: Antibacterial activity against Escherichia coli ATCC 25922 assessed as inhibition of bacterial growth incubated for 16 to 20 hrs by CLSI based microdilution method; type: functional; conditions: time 16-20 hrs
Salmonella enterica [3] = test: Antibacterial activity against Salmonella enterica H9812 assessed as inhibition of bacterial growth incubated for 16 to 20 hrs by CLSI based microdilution method; type: functional; conditions: time 16-20 hrs
[4] = Hemolytic activity in sheep RBC incubated for 1 hr by absorbance based analysis; type: toxicity, cell-based, Ovis aries, Erythrocyte; conditions: sheep red blood cells
Enterococcus faecalis = test: Antibacterial activity against Enterococcus faecalis ATCC 29212 assessed as inhibition of bacterial growth incubated for 16 to 20 hrs by CLSI based microdilution method; type: functional; conditions: time 16-20 hrs

| MIC (Staphylococcus aureus) [µg/mL] | MIC (Salmonella enterica [2]) [µg/mL] | MIC (Micrococcus luteus) [µg/mL] | MIC (Escherichia coli) [µg/mL] | MIC (Salmonella enterica [3]) [µg/mL] | MIC (Enterococcus faecalis) [µg/mL] | Structure (SMILES) | selectivity ratio [1] | HC50 at 1 h [4] [µg/mL] |
| --- | --- | --- | --- | --- | --- | --- | --- | --- |
| 32 | 128 | 64 | 64 | 64 | 64 | C=CCc1cccc(Oc2ccc(C(=O)CC)cc2)c1OCC[N+](C)(C)CC(=O)NCCCC.[Br-] | 35.9 | 1150 |
| 64 | 64 | 64 | 64 | 32 | 64 | C=CCc1cccc(Oc2ccc(C(=O)CC)cc2)c1OCCC[N+](C)(C)CC(=O)NCCC.[Br-] | > 20 | > 1280 |
| 32 | > 128 | 64 | 64 | > 128 | 32 | C=CCc1cccc(Oc2ccc(C(=O)CC)cc2)c1OCCCC[N+](C)(C)CC(=O)N(CC)CC.[Br-] | > 40 | > 1280 |
| 4 | 64 | 64 | 32 | 32 | 16 | C=CCc1cccc(Oc2ccc(C(=O)CC)cc2)c1OCCCC[N+](C)(C)CC(=O)NCCCCCC.[Br-] | 160 | 642 |
| 16 | 64 | 32 | 32 | 64 | 64 | Br.C=CCc1cccc(Oc2ccc(C(=O)CC)cc2)c1OCCCSC(=N)N | 55.8 | 894 |
| 8 | 64 | 16 | 32 | 64 | 16 | C=CCc1cccc(Oc2ccc(C(=O)CC)cc2)c1OCC[N+](C)(C)CC(=O)NCCCCC.[Br-] | 194 | 1550 |
| 2 | 32 | 32 | 32 | 64 | 16 | C=CCc1cccc(Oc2ccc(C(=O)CC)cc2)c1OCCCC[N+](C)(C)CC(=O)N(CCCC)CCCC.[Br-] | 388 | 776 |
| 32 | 128 | 64 | 64 | 128 | 32 | C=CCc1cccc(Oc2ccc(C(=O)CC)cc2)c1OCCCC[N+](C)(C)CC(=O)N(CCC)CCC.[Br-] | 29.1 | 933 |
| 32 | 64 | 64 | 64 | 128 | 64 | Br.C=CCc1cccc(Oc2ccc(C(=O)CC)cc2)c1OCCSC(=N)N | 24.6 | 789 |
| 4 |  |  | > 128 |  |  | CCCCCCNC(=O)C[N+](C)(C)CCCOc1ccccc1Oc1ccc(C(=O)CC)cc1.[Br-] | 134 | 536 |
| 8 | 32 | 16 | 64 | 128 | 16 | C=CCc1cccc(Oc2ccc(C(=O)CC)cc2)c1OCCCC[N+](C)(C)CC(=O)NCCCC.[Br-] | 138 | 1110 |
| 64 | > 128 | 32 | 128 | > 128 | 64 | C=CCc1cccc(Oc2ccc(C(=O)CC)cc2)c1OCC[N+](C)(C)CC(=O)N(CC)CC.[Br-] | 10.8 | 690 |
| 32 | 128 | 128 | 64 | 128 | 64 | C=CCc1cccc(Oc2ccc(C(=O)CC)cc2)c1OCCCC[N+](C)(C)CC(=O)NCCC.[Br-] | 25.7 | 823 |
| 16 |  |  | > 128 |  |  | CCCCCCNC(=O)C[N+](C)(C)CCOc1ccccc1Oc1ccc(C(=O)CC)cc1.[Br-] | 57.4 | 918 |
| 16 | 64 | 32 | 64 | 128 | 16 | C=CCc1cccc(Oc2ccc(C(=O)CC)cc2)c1OCCC[N+](C)(C)CC(=O)N(CCC)CCC.[Br-] | 53.3 | 854 |
| 64 | 64 | 16 | 128 | 64 | 64 | C=CCc1cccc(Oc2ccc(C(=O)CC)cc2)c1OCC[N+](C)(C)CC(=O)N1CCOCC1.[Br-] | > 20 | > 1280 |

| MIC (Staphylococcus aureus) [µg/mL] | MIC (Salmonella enterica [2]) [µg/mL] | MIC (Micrococcus luteus) [µg/mL] | MIC (Escherichia coli) [µg/mL] | MIC (Salmonella enterica [3]) [µg/mL] | MIC (Enterococcus faecalis) [µg/mL] | Structure (SMILES) | selectivity ratio [1] | HC50 at 1 h [4] [µg/mL] |
| --- | --- | --- | --- | --- | --- | --- | --- | --- |
| 128 (≈ 453 µM) | > 128 | 64 (≈ 227 µM) | 128 (≈ 453 µM) | 128 (≈ 453 µM) | 128 (≈ 453 µM) | C=CCc1ccc(O)c(Oc2ccc(C(=O)CC)cc2)c1 | > 5 | > 640 |
| 8 | 128 | 32 | 32 | 64 | 16 | C=CCc1cccc(Oc2ccc(C(=O)CC)cc2)c1OCCC[N+](C)(C)CC(=O)NCCCC.[Br-] | 63.3 | 507 |
| 32 | > 128 | 64 | 128 | 128 | 32 | C=CCc1cccc(Oc2ccc(C(=O)CC)cc2)c1OCC[N+](C)(C)CC(=O)NCCC.[Br-] | 19.8 | 634 |
| 128 (≈ 453 µM) | > 128 | 64 (≈ 227 µM) | 128 (≈ 453 µM) | > 128 | 128 (≈ 453 µM) | C=CCc1cccc(Oc2ccc(C(=O)CC)cc2)c1O | 3.4 | 438 |
| 4 | 64 | 16 | 32 | 128 | 8 | C=CCc1cccc(Oc2ccc(C(=O)CC)cc2)c1OCCCC[N+](C)(C)CC(=O)NCCCCC.[Br-] | 141 | 564 |
| 64 | > 128 | 64 | 64 | > 128 | 64 | C=CCc1cccc(Oc2ccc(C(=O)CC)cc2)c1OCCC[N+](C)(C)CC(=O)NCC.[Br-] | 7.8 | 501 |
| 8 | 128 | 32 | 64 | 128 | 8 | C=CCc1cccc(Oc2ccc(C(=O)CC)cc2)c1OCC[N+](C)(C)CC(=O)N(CCCC)CCCC.[Br-] | 104 | 834 |
| 64 | > 128 | 64 | > 128 | > 128 | 64 | C=CCc1cccc(Oc2ccc(C(=O)CC)cc2)c1OCCCC[N+](C)(C)CC(=O)N1CCOCC1.[Br-] | 9 | 578 |
| 4 | 128 | 16 | 64 | 128 | 16 | C=CCc1cccc(Oc2ccc(C(=O)CC)cc2)c1OCCC[N+](C)(C)CC(=O)N(CCCC)CCCC.[Br-] | 194 | 776 |
| 16 | 64 | 16 | 32 | 128 | 32 | Br.C=CCc1cccc(Oc2ccc(C(=O)CC)cc2)c1OCCCCSC(=N)N | 58.2 | 931 |
| 64 | 32 | 128 | 64 | 64 | 128 | C=CCc1cccc(Oc2ccc(C(=O)CC)cc2)c1OCCCC[N+](C)(C)CC(=O)NCC.[Br-] | 12.2 | 785 |
| 16 | 64 | 32 | 128 | 64 | 32 | C=CCc1cccc(Oc2ccc(C(=O)CC)cc2)c1OCCC[N+](C)(C)CC(=O)N1CCCC1.[Br-] | 32.8 | 526 |
| 32 | 128 | 32 | 64 | 128 | 32 | C=CCc1cccc(Oc2ccc(C(=O)CC)cc2)c1OCC[N+](C)(C)CC(=O)NCC.[Br-] | 15.9 | 509 |
| 8 | 32 | 16 | 64 | 64 | 16 | C=CCc1cccc(Oc2ccc(C(=O)CC)cc2)c1OCC[N+](C)(C)CC(=O)N(CCC)CCC.[Br-] | 138 | 1110 |
| 32 | 64 | 128 | 64 | 32 | 32 | C=CCc1cccc(Oc2ccc(C(=O)CC)cc2)c1OCCC[N+](C)(C)CC(=O)N(CC)CC.[Br-] | 22.9 | 733 |
| 4 | 8 | 32 | 16 | > 128 | 8 | C=CCc1cccc(Oc2ccc(C(=O)CC)cc2)c1OCCC[N+](C)(C)CC(=O)NCCCCC.[Br-] | 172 | 690 |

| Structure (SMILES) | MIC (Staphylococcus aureus) [µg/mL] | MIC (Salmonella enterica [2]) [µg/mL] | MIC (Micrococcus luteus) [µg/mL] | MIC (Escherichia coli) [µg/mL] | MIC (Salmonella enterica [3]) [µg/mL] | MIC (Enterococcus faecalis) [µg/mL] | selectivity ratio [1] | HC50 at 1 h [4] [µg/mL] |
| --- | --- | --- | --- | --- | --- | --- | --- | --- |
| C[C@@H](O)[C@H]1C(=O)N2C(C(=O)O)=C(S[C@@H]3CN[C@H](C(=O)N(C)C)C3)[C@H](C)[C@H]12 [MEROPENEM] |  | 0.125 (≈ 0.326 µM) |  | 0.125 (≈ 0.326 µM) | 0.125 (≈ 0.326 µM) |  |  |  |
